Data: ChEMBL document CHEMBL1201862, “PubChem BioAssay data set” (2004)
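Method: 48-hour compound exposure of cells in 96-well plates, five concentrations, linear interpolation of endpoints. GI50 is the concentration that inhibits growth by half.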 Activity calls are given as the source filed them. Cut-off read from the data, not from the text of the source: active = GI50 up to about 1.1 µM and inactive = higher.

What was measured:
Assay in all cases: NCI-60 cell line screen, 48 h
A498 = system: A498
HL-60 = system: HL-60
NCI-H23 = system: NCI-H23
SF-295 = system: SF-295
COLO 205 = system: COLO 205
LOX IMVI = system: LOX IMVI
ACHN = system: ACHN
RXF 393 = system: RXF 393
OVCAR-3 = system: OVCAR-3
SNB-19 = system: SNB-19
CAKI-1 = system: CAKI-1
SK-MEL-28 = system: SK-MEL-28
SF-539 = system: SF-539
SNB-78 = system: SNB-78
CCRF-CEM = system: CCRF-CEM
SK-MEL-5 = system: SK-MEL-5
SW-620 = system: SW-620
UACC-257 = system: UACC-257
TK-10 = system: TK-10
SK-OV-3 = system: SK-OV-3
UO-31 = system: UO-31
M19-MEL = system: M19-MEL
SN12C = system: SN12C
EKVX = system: EKVX
MOLT-4 = system: MOLT-4
NCI-H522 = system: NCI-H522
HCT-116 = system: HCT-116
KM-20L2 = system: KM-20L2
HCC 2998 = system: HCC 2998
K562 = system: K562
HOP-92 = system: HOP-92
HCT-15 = system: HCT-15
IGROV-1 = system: IGROV-1
M14 = system: M14
SK-MEL-2 = system: SK-MEL-2
OVCAR-5 = system: OVCAR-5
Malme-3M = system: Malme-3M
A549 = system: A549
DLD-1 = system: DLD-1
LXFL 529 = system: LXFL 529
DMS-114 = system: DMS-114
OVCAR-4 = system: OVCAR-4
SNB-75 = system: SNB-75
U-251 = system: U-251
HT-29 = system: HT-29
SF-268 = system: SF-268
RXF 631 = system: RXF 631
XF498 = system: XF498
RPMI-8226 = system: RPMI-8226
KM12 = system: KM12
UACC-62 = system: UACC-62
SR = system: SR
HOP-62 = system: HOP-62
NCI-H226 = system: NCI-H226
DMS-273 = system: DMS-273
OVCAR-8 = system: OVCAR-8
786-0 = system: 786-0
NCI-H460 = system: NCI-H460

With `O=c1[nH]c(=O)n(C2CC(O)C(CO)O2)cc1C#Cc1cc(C(F)(F)F)cc(C(F)(F)F)c1` (stereo not drawn) the GI50 (A498) was > 100 µM (inactive), the GI50 (HL-60) was > 60.4 µM (inactive) and the GI50 (NCI-H23) was 24.4 µM (inactive). For the same compound, the GI50 (SF-295) was 17.3 µM (inactive), the GI50 (COLO 205) was > 21.3 µM (inactive) and the GI50 (LOX IMVI) was > 25.5 µM (inactive). For the same compound, the GI50 (ACHN) was > 29.4 µM (inactive), the GI50 (RXF 393) was 8.87 µM (inactive) and the GI50 (OVCAR-3) was > 52.1 µM (inactive). The GI50 (SNB-19) was 20.1 µM (inactive), the GI50 (CAKI-1) was > 100 µM (inactive) and the GI50 (SK-MEL-28) was > 31.7 µM (inactive). The GI50 (SF-539) was 26.5 µM (inactive), the GI50 (SNB-78) was 50.7 µM (inactive) and the GI50 (CCRF-CEM) was > 100 µM (inactive). The GI50 (SK-MEL-5) was > 27.4 µM (inactive), the GI50 (SW-620) was > 30.2 µM (inactive) and the GI50 (UACC-257) was > 37.5 µM (inactive). For the same compound, the GI50 (TK-10) was > 100 µM (inactive), the GI50 (SK-OV-3) was 91.2 µM (inactive) and the GI50 (UO-31) was > 30.6 µM (inactive). The GI50 (M19-MEL) was > 31.3 µM (inactive), the GI50 (SN12C) was > 27.9 µM (inactive) and the GI50 (EKVX) was 40.3 µM (inactive). The GI50 (MOLT-4) was > 26.9 µM (inactive), the GI50 (NCI-H522) was 25.1 µM (inactive) and the GI50 (HCT-116) was > 22.8 µM (inactive). The GI50 (KM-20L2) was > 45.4 µM (inactive), the GI50 (HCC 2998) was > 32 µM (inactive) and the GI50 (K562) was > 100 µM (inactive). The GI50 (HOP-92) was 33.8 µM (inactive), the GI50 (HCT-15) was over 50.7 µM and the GI50 (IGROV-1) was > 36.4 µM (inactive). For the same compound, the GI50 (M14) was > 24.8 µM (inactive), the GI50 (SK-MEL-2) was > 36.9 µM (inactive) and the GI50 (OVCAR-5) was > 100 µM (inactive). For the same compound, the GI50 (Malme-3M) was 34.8 µM (inactive), the GI50 (A549) was > 24.7 µM (inactive) and the GI50 (DLD-1) was > 29.4 µM (inactive). The GI50 (LXFL 529) was > 30.1 µM (inactive), the GI50 (DMS-114) was > 31.2 µM (inactive) and the GI50 (OVCAR-4) was > 29.4 µM (inactive). For the same compound, the GI50 (SNB-75) was 21.1 µM (inactive), the GI50 (U-251) was 18 µM (inactive) and the GI50 (HT-29) was > 31.8 µM (inactive). The GI50 (SF-268) was 43.9 µM (inactive), the GI50 (RXF 631) was 21.3 µM (inactive) and the GI50 (XF498) was 21 µM (inactive). The GI50 (RPMI-8226) was > 29.6 µM (inactive), the GI50 (KM12) was > 30.8 µM (inactive) and the GI50 (UACC-62) was > 25.6 µM (inactive). For the same compound, the GI50 (SR) was > 100 µM (inactive), the GI50 (HOP-62) was > 68.1 µM (inactive) and the GI50 (NCI-H226) was > 100 µM (inactive).

In the case of `CCN(CC)CCSc1c2ccccc2nc2c(OC)ccc(OC)c12`, the GI50 (DMS-273) is reported as 5.08 µM (inactive), the GI50 (A498) is reported as 13.3 µM (inactive) and the GI50 (HL-60) is reported as 1.73 µM (inactive). The GI50 (OVCAR-8) was 2.43 µM (inactive), the GI50 (NCI-H23) was 14.6 µM (inactive) and the GI50 (SF-295) was 33.4 µM (inactive). For the same compound, the GI50 (COLO 205) was 2.72 µM (inactive), the GI50 (LOX IMVI) was 4.81 µM (inactive) and the GI50 (ACHN) was 5.61 µM (inactive). The GI50 (RXF 393) was 1.94 µM (inactive), the GI50 (SNB-19) was 43.6 µM (inactive) and the GI50 (CAKI-1) was 3.1 µM (inactive). The GI50 (SK-MEL-28) was 2.94 µM (inactive), the GI50 (SNB-78) was 5.31 µM (inactive) and the GI50 (CCRF-CEM) was 2.13 µM (inactive). The GI50 (SK-MEL-5) was 4.66 µM (inactive), the GI50 (SW-620) was 2.08 µM (inactive) and the GI50 (UACC-257) was 3.78 µM (inactive). For the same compound, the GI50 (TK-10) was 4.97 µM (inactive), the GI50 (786-0) was 4.13 µM (inactive) and the GI50 (SK-OV-3) was 36 µM (inactive). The GI50 (UO-31) was 12.8 µM (inactive), the GI50 (M19-MEL) was 8 µM (inactive) and the GI50 (SN12C) was 5.73 µM (inactive). The GI50 (EKVX) was > 56.6 µM (inactive), the GI50 (MOLT-4) was 1.65 µM (inactive) and the GI50 (NCI-H522) was 3.26 µM (inactive). The GI50 (HCT-116) was 3.04 µM (inactive), the GI50 (KM-20L2) was 3.39 µM (inactive) and the GI50 (K562) was 2.94 µM (inactive). The GI50 (HOP-92) was 2.36 µM (inactive), the GI50 (HCT-15) was 3.15 µM and the GI50 (IGROV-1) was 6.32 µM (inactive). For the same compound, the GI50 (M14) was 2.44 µM (inactive), the GI50 (NCI-H460) was 10.8 µM (inactive) and the GI50 (OVCAR-5) was 29.9 µM (inactive). The GI50 (Malme-3M) was > 41.2 µM (inactive), the GI50 (A549) was 29.3 µM (inactive) and the GI50 (DLD-1) was 1.99 µM (inactive). For the same compound, the GI50 (LXFL 529) was 2.3 µM (inactive), the GI50 (DMS-114) was 1.63 µM (inactive) and the GI50 (OVCAR-4) was 10.7 µM (inactive). For the same compound, the GI50 (SNB-75) was > 49.7 µM (inactive), the GI50 (U-251) was 30.3 µM (inactive) and the GI50 (HT-29) was 4.59 µM (inactive). For the same compound, the GI50 (SF-268) was 15.1 µM (inactive), the GI50 (RXF 631) was 2.93 µM (inactive) and the GI50 (XF498) was 2.42 µM (inactive). The GI50 (RPMI-8226) was 2.23 µM (inactive), the GI50 (KM12) was 5.79 µM (inactive) and the GI50 (UACC-62) was 3.77 µM (inactive). The GI50 (SR) was 1.1 µM (active), the GI50 (HOP-62) was 31.8 µM (inactive) and the GI50 (NCI-H226) was 29.5 µM (inactive).
